Experimental data reported in patent US20260115237A1, “PROBIOTIC COMPOSITION FOR PREVENTING AND TREATING ANTI-TUMOR TREATMENT-RELATED DIARRHEA AND USE THEREOF” (SICHUAN ANAEROBIC BIOTECHNOLOGY CO., LTD., priority 2023, published 2026).
Entries after “also recorded” stand apart in the source; their conditions may differ.

Key:
Type in all cases: in vivo
[1] = system: ZO-1; assay: qPCR of colon tissue, 5-FU-induced diarrhea mice; conditions: 20 mg/kg i.g.; 5-FU model
From the text: (§1) (1) Experimental design: Ninety-six SPF-grade male Balb/c mice weighing 22-24 g (purchased from Beijing Vital River Laboratory Animal Technology Co., Ltd.) were housed in an SPF-grade animal room. Based on the initial body weight, the mice were randomly divided into 8 groups of 12: a normal control group, a model control group, a positive control loperamide group, a positive control Zhengchangsheng group, a high-dose bacterial composition group, a medium-high-dose bacterial composition group, a medium-dose bacterial composition group, and a low-dose bacterial composition group. The aforementioned 8 groups were intragastrically given normal saline (0.2 mL/mouse/day), lyoprotectant (0.2 mL/mouse/day), loperamide (purchased from Henan Zhongjie Pharmaceutical Co., Ltd., 20 mg/kg body weight/mouse/day), Zhengchangsheng (containing viable Bacillus licheniformis, Northeast Pharmaceutical Group Co., Ltd., 2×10^8 CFU/mouse/day), high-dose bacterial composition (1×10^9 CFU/mouse/day), medium-high-dose bacterial composition (1×10^8 CFU/mouse/day), medium-dose bacterial composition (1×10^7 CFU/mouse/day), and low-dose bacterial composition (1×10^6 CFU/mouse/day), respectively. The overall experimental period was 9 days, designated as D1 to D9. Intragastric administration was performed for 8 consecutive days from D1 to D8. Modeling was started on D3. The mice in the normal control group received abdominal injection of normal saline at 0.2 mL/mouse, while the mice in all other groups were intraperitoneally injected with 5-FU (5-fluorouracil, purchased from Tianjin Pharma Heping (Tianjin) Pharmaceutical Co., Ltd.; specification: 10 mL/vial, 0.25 g/10 mL) at 30 mg/kg body weight for 4 consecutive days to induce a CID mouse model. The mice were dissected on D9.
(§2) During the experimental period, the body weight of the animals was measured daily, and general observations were recorded (the observation items included but were not limited to the animals' appearance signs, behaviors and activities, respiration, glandular secretion, fecal condition, etc.). The diarrhea condition of each animal after modeling was specifically observed and then recorded and scored. After euthanasia was performed at the end of the experiment, middle colon tissue samples were collected for qPCR detection of genes related to inflammatory factors (TNF-α and IL-1β) and tight junction proteins (ZO-1 and Occludin).
(§3) (3) qPCR detection: The total RNA was extracted from colon tissues of the mice in each group using the Trizol method and then reverse-transcribed into cDNA. The cDNA was stored at −20° C. for later use. The relative mRNA transcriptional levels of the genes encoding the pro-inflammatory factors IL-1β and TNF-α, as well as the tight junction proteins ZO-1 and Occludin-1, in the colon of the mice in each group were detected using the qRT-PCR method (the primer sequences are shown in Table 7, and the internal reference gene was β-actin). Reaction program: 1) 95° C. for 3 min; 2) 95° C. for 10 s, 60° C. for 30 s, 95° C. for 15 s, and 60° C. for 1 min, 40 cycles in total; and 3) 95° C. for 10 s. Data analysis was performed using the 2^−ΔΔCT method.

[2] = system: TNF-α; assay: qPCR of colon tissue, 5-FU-induced diarrhea mice; conditions: 20 mg/kg i.g., 5-FU model
From the text: as §1, §2, §3

[3] = system: IL-1β; assay: qPCR of colon tissue, 5-FU-induced diarrhea mice; conditions: 20 mg/kg i.g.; 5-FU model
From the text: as §1, §2, §3

[4] = system: Occludin; assay: qPCR of colon tissue, 5-FU-induced diarrhea mice; conditions: 20 mg/kg i.g.; 5-FU model
From the text: as §1, §2, §3

[5] = system: mice with radiation enteritis; assay: Diarrhea scoring, radiation enteritis model mice; conditions: 15 mg/kg i.g.
[6] = Body weight, radiation enteritis model mice; conditions: 15 mg/kg i.g.
Protocol: (§4) (1) Experimental design: Eighty male C57BL/6 mice (purchased from Chengdu GemPharmatech Co., Ltd.) were housed in an SPF-grade animal room. Based on the body weight, the aforementioned mice were randomly divided into 8 groups of 10: a normal control group (administration regimen: normal saline at 0.2 mL/mouse/day), a model control group (administration regimen: lyoprotectant at 0.2 mL/mouse/day), a loperamide group (administration regimen: loperamide at 15 mg/kg body weight), an LGG (Lactobacillus rhamnosus GG, Shaanxi Zelang Biotechnology Co., Ltd.) group (administration regimen: LGG at 1×10^9 CFU/mouse/day), a high-dose bacterial composition group (administration regimen: bacterial composition at 1×10^9 CFU/mouse/day), a medium-high-dose bacterial composition group (administration regimen: bacterial composition at 1×10^8 CFU/mouse/day), a medium-dose bacterial composition group (administration regimen: bacterial composition at 1×10^7 CFU/mouse/day), and a low-dose bacterial composition group (administration regimen: bacterial composition at 1×10^6 CFU/mouse/day). Except for the normal control group, all other groups of mice were subjected to a single whole abdominal X-ray irradiation at a dose of 11.5 Gy. The overall experimental period was 18 days, designated as D1 to D18. Each group was subjected to intragastric administration once daily for 17 consecutive days. Seven days after administration, irradiation was performed on D8, and dissection was conducted on D18.
(§5) During the experimental period, the body weight of the animals was measured daily, and general observations were recorded (the observation items included but were not limited to the animals' appearance signs, behaviors and activities, respiration, glandular secretion, fecal condition, etc.). The diarrhea condition of each animal after irradiation modeling was specifically observed and then recorded and scored. At the end of the experiment, the animals were euthanized, and the colorectal parts were taken, directly fixed in a 10% formaldehyde solution, stained with HE, and then subjected to pathological examination.

[7] = system: 5-FU-induced tumor-bearing CID mice; assay: Blood routine examination, 5-FU-induced tumor-bearing mouse model; conditions: 20 mg/kg i.g.; tumor-bearing 5-FU model
Protocol: (§6) Experimental design: Fifty male BALB/c mice (purchased from Chengdu GemPharmatech Co., Ltd.) were housed in an SPF-grade animal room. CT26 cells (purchased from Beijing BeNa Culture Collection) were subcutaneously inoculated into the right flank of each mouse at a dose of 5×10^6 cells/mouse in a volume of 0.1 mL. When the tumor volume reached about 100-150 mm^3, 42 mice were selected for the subsequent experiment. Based on the tumor volume, the aforementioned 42 mice were randomly divided into 7 groups of 6. The aforementioned 7 groups were as follows: a normal control group (administration regimen: lyoprotectant at 0.2 mL/mouse/day), a model control group (administration regimen: lyoprotectant at 0.2 mL/mouse/day), a positive control loperamide group (administration regimen: loperamide at 20 mg/kg body weight), a Zhengchangsheng group (administration regimen: Bacillus licheniformis at 2×10^8 CFU/mouse/day), a high-dose bacterial composition group (administration regimen: bacterial composition at 1×10^9 CFU/mouse/day), a medium-dose bacterial composition group (administration regimen: bacterial composition at 1×10^8 CFU/mouse/day), and a low-dose bacterial composition group (administration regimen: bacterial composition at 1×10^7 CFU/mouse/day). The day of grouping was designated as day 1 (D1) of the experiment, and intragastric administration was started on day 1 (D1) and performed once daily (QD) for 9 consecutive days. On days 3, 4, 5, and 6 of administration, the normal control group was intraperitoneally injected with normal saline at 0.2 mL/mouse, while the mice in all other groups were intraperitoneally injected with 5-FU (50 mg/kg body weight, 10 mL/kg body weight) for modeling. Compared with the normal control group, the tumor volumes of mice in each group were reduced after 5-FU injection.
The specific administration regimens are detailed in Table 18. After the end of the experiment, whole blood samples were collected from animals in each group through enucleation, and then subjected to blood routine examination using a five-classification blood cell analyzer for animals (Shenzhen Dymind Biotechnology Co., Ltd.).

[8] = system: mice with 5-FU-induced diarrhea; assay: Diarrhea scoring, mice with 5-FU-induced diarrhea (CID model); conditions: 20 mg/kg i.g.; 5-FU model
Protocol: Pdist-1, Lferm-1, Lsali-1, Eaviu-1, and Bbifi-1 were each inoculated into the corresponding bacterial powder preparation medium, and then anaerobically cultured at 37° C. and 90 rpm for 16-24 h to obtain a primary seed solution. Subsequently, the five primary seed solutions were each transferred to the corresponding bacterial powder preparation medium, and then anaerobically cultured at 37° C. and 90 rpm for 10-15 h to obtain a secondary seed solution. The five secondary seed solutions were each pumped into a fermenter containing the corresponding bacterial powder preparation medium using a peristaltic pump, and then subjected to fermentation culture. After the fermentation was stopped, the bacterial cells of each strain were collected by centrifugation. Each corresponding lyoprotectant was added according to a weight ratio of the bacterial sludge to the lyoprotectant of 1:1 to 1:2, and the mixture was well mixed to emulsify the bacterial sludge. Each bacterial sludge was lyophilized and pulverized to obtain a bacterial powder. An appropriate amount of each pulverized bacterial powder was taken for determination of viable count. The bacterial powders of the strains were mixed at equal CFU concentrations based on the viable counts to obtain a bacterial composition powder. Finally, the bacterial composition powder was prepared into a bacterial suspension using normal saline for an animal experiment. The bacterial suspension was diluted with normal saline to obtain bacterial compositions with different bacterial doses. […]
During the experimental period, the body weight of the animals was measured daily, and general observations were recorded (the observation items included but were not limited to the animals' appearance signs, behaviors and activities, respiration, glandular secretion, fecal condition, etc.). The diarrhea condition of each animal after modeling was specifically observed and then recorded and scored. […]

[9] = system: mice with radiation enteritis; assay: Colorectal pathological examination (HE), radiation enteritis model mice; conditions: 15 mg/kg i.g.
Protocol: as §4, §5
(3) Pathological examination of intestinal tissues: The colorectal parts were directly fixed in a 10% formaldehyde solution, stained with HE, and then subjected to pathological examination.

[10] = system: 5-FU-induced tumor-bearing CID mice; assay: Diarrhea scoring, 5-FU-induced tumor-bearing CID mice; conditions: 20 mg/kg i.g., tumor-bearing 5-FU model
From the text: The bacterial composition used in Examples 10-12 were obtained by mixing five strains at equal CFU concentrations according to the method in Example 9. The CFU of the bacterial composition referred to in Examples 10-12 was the total CFU of the five strains.
as §6

In the case of `CN(C)C(=O)C(CCN1CCC(O)(c2ccc(Cl)cc2)CC1)(c1ccccc1)c1ccccc1` [Loperamide, loperamide], the “ZO-1 relative mRNA transcription level in colon tissue” value [1] is reported as 0.80, the “TNF-a relative mRNA transcription level in colon tissue” value [2] is reported as 1.05 and the “TNF-a relative mRNA transcription level in colon tissue” value ([2]; listed as loperamide) is reported as “significantly reduce”. For the same molecule, the “IL-1β relative mRNA transcription level in colon tissue” value [3] was 1.26, the “Occludin relative mRNA transcription level in colon tissue” value [4] was 0.90 and the “D17 total diarrhea score” value [5] was 9.80 ± 0.59. For the same molecule, the “D17 total diarrhea score” value ([5]; listed as loperamide) was “significant improvements”, the D1 body weight [6] was 23.11 ± 0.20 g and the D14 body weight [6] was 19.79 ± 0.14 g. The “D14 body weight change rate” value [6] was −14.37 ± −10.00%, the D17 body weight [6] was 20.92 ± 0.16 g and the “D17 body weight change rate” value [6] was −9.48 ± −6.38%. The D17 body weight ([6]; listed as loperamide) was “a trend toward restoring”, the Hematocrit [7] was 43.17 ± 0.99% and the Lymphocyte count [7] was 1.18 ± 0.29 10^9/L. The Platelet count [7] was 216.67 ± 21.53 10^9/L, the “Red blood cell count” value [7] was 9.39 ± 0.23 10^12/L and the “White blood cell count” value [7] was 1.24 ± 0.30 10^9/L. It also gave a D8 diarrhea score [8] of 0.08 ± 0.08, a D9 diarrhea score [8] of 0.17 ± 0.11 and a Total diarrhea score [8] of 0.25 ± 0.18. For the same molecule, the “Goblet cell (colorectal pathological score)” value [9] was 1.60 ± 0.08, the “Inflammatory infiltration (colorectal pathological score)” value [9] was 2.00 ± 0.00 and the “Mucosal damage (colorectal pathological score)” value [9] was 1.60 ± 0.08. The “Pathological score (colorectal)” value [9] was 5.20 ± 0.15, the “Pathological score (colorectal)” value ([9]; listed as loperamide) was “an improvement trend” and the “D1-D9 total diarrhea score” value [10] was 4.67 ± 0.56. It also gave a D6 diarrhea score [10] of 0.33 ± 0.21, a D7 diarrhea score [10] of 1.00 ± 0.00 and a D8 diarrhea score [10] of 1.33 ± 0.21. The D9 diarrhea score [10] was 2.00 ± 0.37, the “D1-D9 total diarrhea score” value ([10]; listed as loperamide) was “a significant reduction; also recorded: significantly ameliorate diarrhea” and the D8 diarrhea score ([10]; listed as loperamide) was “a significant reduction”.
